Measurements published in patent EP3928775A1, “USE OF ANTI[…] FOR TREATING THE COVID-19 DISEASE” (priority 2020, dated 2021).
Read-outs that look alike come from different tables or passages of the source.

Columns and labels:
[1] = system: SARS-CoV-2; settings: in-vitro study, reference 11; cited from earlier work
[2] = system: Covid-19; type: in vivo, human
[3] = Patients admitted to the hospital with Covid-19, exposed vs not exposed

SMILES | antiviral effects on SARS-CoV-2 [1] | risk of intubation or death (in words) [2, 3] | risk of intubation or death (in words) ([2]; in vivo)
Fc1ccc([C@@H]2CCNC[C@H]2COc2ccc3c(c2)OCO3)cc1 [Paroxetine] | has not be observed | – | –
CN(C)CCC[C@@]1(c2ccc(F)cc2)OCc2cc(C#N)ccc21 [Escitalopram] | has not be observed | significantly and substantially reduced | –
COc1ccc(C(CN(C)C)C2(O)CCCCC2)cc1 (stereo not drawn) [Venlafaxine] | – | significantly and substantially reduced | –
CNCCC(Oc1ccc(C(F)(F)F)cc1)c1ccccc1 (stereo not drawn) [Fluoxetine] | antiviral effects | – | significantly and substantially reduced
